According to ChEMBL document CHEMBL4145662, “Novel Nonsteroidal Progesterone Receptor (PR) Antagonists with a Phenanthridinone Skeleton” (ACS Med Chem Lett, 2018):
pIC50: −log10 of the molar value.

Tests used:
Progesterone receptor [1] = molecular target: T1, Progesterone receptor (Homo sapiens, UniProt P06401); test: Antagonist activity at PR in human T47D cells assessed as inhibition of progesterone-induced alkaline phosphatase activity measured after 24 hrs; assay type: cell-based
T1 sequence (P06401 whole entry): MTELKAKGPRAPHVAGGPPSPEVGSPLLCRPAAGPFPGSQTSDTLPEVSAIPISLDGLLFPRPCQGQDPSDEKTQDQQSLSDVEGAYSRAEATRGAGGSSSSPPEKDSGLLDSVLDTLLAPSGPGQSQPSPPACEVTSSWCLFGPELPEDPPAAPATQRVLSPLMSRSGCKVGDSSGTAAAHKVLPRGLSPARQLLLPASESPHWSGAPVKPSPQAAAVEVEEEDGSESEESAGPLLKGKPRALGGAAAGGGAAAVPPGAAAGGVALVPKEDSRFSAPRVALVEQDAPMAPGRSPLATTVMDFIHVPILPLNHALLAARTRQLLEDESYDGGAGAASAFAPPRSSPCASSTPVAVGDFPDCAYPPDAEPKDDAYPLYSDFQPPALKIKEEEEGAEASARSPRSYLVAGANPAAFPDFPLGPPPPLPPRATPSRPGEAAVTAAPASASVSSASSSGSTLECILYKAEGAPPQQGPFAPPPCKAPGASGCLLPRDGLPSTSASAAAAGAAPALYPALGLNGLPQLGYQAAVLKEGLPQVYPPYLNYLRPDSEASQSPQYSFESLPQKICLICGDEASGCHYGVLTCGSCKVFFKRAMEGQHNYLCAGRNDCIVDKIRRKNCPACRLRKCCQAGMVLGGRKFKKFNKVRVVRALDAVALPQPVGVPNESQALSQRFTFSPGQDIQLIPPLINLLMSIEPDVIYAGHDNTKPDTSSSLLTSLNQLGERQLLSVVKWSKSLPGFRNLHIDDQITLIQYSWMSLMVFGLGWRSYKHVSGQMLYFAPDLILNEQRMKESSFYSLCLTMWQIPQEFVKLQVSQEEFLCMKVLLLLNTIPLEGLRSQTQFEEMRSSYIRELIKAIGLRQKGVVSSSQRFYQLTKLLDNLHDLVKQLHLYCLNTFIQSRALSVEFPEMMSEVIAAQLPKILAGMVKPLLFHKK

Progesterone receptor [2] = molecular target: T1, Progesterone receptor; test: Agonist activity at PR in human T47D cells at 10 uM; assay type: cell-based

Row | Compound | pIC50 (Progesterone receptor [1]) | Activity (Progesterone receptor [2])
1 | CCCCCCn1c(=O)c2ccccc2c2cc(C(O)(C(F)(F)F)C(F)(F)F)ccc21 | 5.60 | 
2 | O=c1[nH]c2c(F)cc(C(O)(C(F)(F)F)C(F)(F)F)cc2c2ccccc12 | 6.89 | 
3 | CCCCn1c(=O)c2ccccc2c2cc(C(O)(C(F)(F)F)C(F)(F)F)ccc21 | 5.92 | 
4 | O=c1[nH]c2ccc(C(O)(C(F)(F)F)C(F)(F)F)cc2c2cccc(F)c12 | 6.14 | 
5 | CCCCn1c(=O)c2c(OC)cccc2c2cc(C(O)(C(F)(F)F)C(F)(F)F)ccc21 | 4.92 | 
6 | O=c1[nH]c2ccc(C(O)(C(F)(F)F)C(F)(F)F)cc2c2ccccc12 | 6.11 | 
7 | CCCCn1c(=O)c2ccccc2c2cc(C(O)(C(F)(F)F)C(F)(F)F)cc(OC)c21 | 6.25 | 
8 | CCCCn1c(=O)c2cccc(OC)c2c2cc(C(O)(C(F)(F)F)C(F)(F)F)ccc21 | 5.57 | 
9 | CCn1c(=O)c2ccccc2c2cc(C(O)(C(F)(F)F)C(F)(F)F)ccc21 | 5.85 | 
10 | CCc1cc(C(O)(C(F)(F)F)C(F)(F)F)cc2c1[nH]c(=O)c1ccccc12 | 6.68 | 
11 | CCCCn1c(=O)c2ccccc2c2cc(CO)ccc21 | 5.07 | 
12 | CCCCCCCCCn1c(=O)c2ccccc2c2cc(C(O)(C(F)(F)F)C(F)(F)F)ccc21 | 5.00 | 
13 | CCCCn1c(=O)c2ccccc2c2cc(C(C)(C)C)ccc21 | 5.08 | 
14 | CCCCn1c(=O)c2ccccc2c2cc(C)ccc21 | 5.10 | 
15 | CCCCn1c(=O)c2ccc(OC)cc2c2cc(C(O)(C(F)(F)F)C(F)(F)F)ccc21 | 5.24 | 
16 | CCCCn1c(=O)c2ccccc2c2c(OC)c(C(O)(C(F)(F)F)C(F)(F)F)ccc21 | 5.40 | 
17 | O=c1[nH]c2ccc(C(O)(C(F)(F)F)C(F)(F)F)cc2c2cc(F)ccc12 | 6.00 | 

Now from value to compound:

Row | pIC50 (Progesterone receptor [1]) | Activity (Progesterone receptor [2]) | Compound
18 | 6.91 | Not Active | Cn1c(C#N)ccc1-c1ccc2oc(=O)ccc2c1
19 | 6.97 | Not Active | O=S(=O)(Nc1ccc(Oc2ccccc2)cc1)c1cccc(C(F)(F)F)c1
20 | 6.47 |  | Cn1c(=O)c2ccccc2c2cc(C(O)(C(F)(F)F)C(F)(F)F)ccc21
21 | 6.51 |  | O=c1[nH]c2ccc(C(O)(C(F)(F)F)C(F)(F)F)cc2c2ccc(F)cc12
22 | 6.44 |  | CCCc1cc(C(O)(C(F)(F)F)C(F)(F)F)cc2c1[nH]c(=O)c1ccccc12
23 | 6.74 |  | Cc1cc(C(O)(C(F)(F)F)C(F)(F)F)cc2c3ccccc3c(=O)n(C)c12
24 | 5.96 |  | CCCCn1c(=O)c2cc(OC)ccc2c2cc(C(O)(C(F)(F)F)C(F)(F)F)ccc21
25 | 6.39 |  | CCCCn1c(=O)c2ccccc2c2cc(C(O)(C(F)(F)F)C(F)(F)F)c(OC)cc21
26 | 5.15 |  | CCCCn1c(=O)c2ccccc2c2ccccc21
27 | 5.42 |  | CCCn1c(=O)c2ccccc2c2cc(C(O)(C(F)(F)F)C(F)(F)F)ccc21
28 | 5.11 |  | CCCCn1c(=O)c2ccccc2c2cc(CC)ccc21
29 | 6.57 |  | COc1cc(C(O)(C(F)(F)F)C(F)(F)F)cc2c1[nH]c(=O)c1ccccc12
30 |  | Not Active | CC#C[C@]1(O)CC[C@H]2[C@@H]3CCC4=CC(=O)CCC4=C3[C@@H](c3ccc(N(C)C)cc3)C[C@@]21C [MIFEPRISTONE]
